Test results published in PubChem BioAssay AID1963962 (Molecular Pharmacology Branch, DTP, NCI, 2024).
Values joined by “and” are separate entries in the source; they are usually repeats but may differ in a detail not shown here. Identical values can stand only once.

Tested on: 967376-340-R-J2-PDC multicell spheroid viability
Assay: Anticancer human tumor 967376-340-R-J2-PDC patient-derived colon adenocarcinoma cell line growth inhibition [PI3K]
Conditions: for viability, T/C: stronger effect = lower value
Text: Combinatorial screen of targeted agents with the PI3K inhibitors inavolisib, alpelisib, duvelisib, and copanlisib in multi-cell type tumor spheroids
A high-throughput screen of multi-cell type tumor spheroids was designed to identify active combinations of targeted small molecules and PI3K pathway inhibitors. Complex spheroids include a stromal component modeled by human endothelial cells (HUVEC) and fibroblasts modeled by human mesenchymal stem cells (MSCs). The concentration ranges selected for each drug and investigational agent were based upon clinically achievable concentrations if the clinical Cmax of the agent was known.
Compounds. The drugs and investigational agents: inavolisib (NSC800729), alpelisib (NSC765974), duvelisib (NSC772469), copanlisib (NSC816437), ipatasertib (NSC767898), afuresertib (NSC778305), talazoparib (NSC767125), sapanisertib (NSC764658), selumetinib (NSC741078), tovorafenib (DAY101, NSC766906), vemurafenib (NSC761431), ravoxertinib (NSC781343), sotorasib (NSC818433), MRTX1133 (NSC 836407), abemaciclib (NSC 768073), palbociclib (NSC758247), venetoclax (NSC 766270), SY5609 (NSC837396), enzalutamide (NSC755605), and darolutamide (NSC825331), were obtained from the National Cancer Institute (NCI) Developmental Therapeutics Program Chemical Repository. The FDA-approved anticancer drug set is available from the NCI Developmental Therapeutics Program. […] The stock solutions were prepared in dimethyl sulfoxide (DMSO, Sigma-Aldrich, St. Louis, MO, cat. D2650) at 800-fold the tested concentration and stored at -70 degrees C prior to their use. All drugs and investigational agents were tested over a range starting from a high concentration at or near the clinical Cmax and decreasing in half-log increments. If the clinical Cmax for an agent had not been determined, the highest concentration tested was 10 microM.
Cell Culture. All cells were maintained in an incubator at 37 degrees C and 5% CO2 with 95% humidity. The PDC lines were cultured according to standard operating procedures established by the NCI PDMR (https://pdmr.cancer.gov/sops/default.htm). All PDCs were thawed and cultured in Matrigel-coated flasks prepared with a working solution of 1X Ham's F-12 nutrient mix, without supplementation (Invitrogen, Waltham, MA, cat. 11765054), 100 U/mL penicillin-streptomycin (Invitrogen, cat. 15140122), and 2.5% Matrigel (Corning Inc., Corning, NY, cat. 354248) for the first three passages. The 354836-022-R-J1-PDC, 475296-252-R-J1-PDC, and 997726-040-R-J2-PDC lines were cultured in 6A media, which includes advanced DMEM/F-12 (Thermo Fisher Scientific, cat. 12634028), 10 mM HEPES (Thermo Fisher Scientific, cat. 15630080), 1X GlutaMAX supplement (Thermo Fisher Scientific, cat. 35050061), 0.1 mg/mL primocin (InvivoGen, San Diego, CA, cat. ant-pm-2), 10% defined fetal bovine serum, heat inactivated (HyClone Laboratories Inc., Logan, UT, cat. SH30070.03HI), 50% L-WRN conditioned media (ATCC, cat. CRL-3276), 1.25 mM N-Acetyl-L-cysteine (Sigma-Aldrich, cat. A9165), 10 mM nicotinamide (Sigma-Aldrich, cat. N0636), 1X B-27 supplement (Thermo Fisher Scientific, cat. 17504044), 1X N-2 supplement (Thermo Fisher Scientific, cat. 17502048), and 10 microM Y-27632 dihydrochloride (Tocris Bioscience, Bristol, United Kingdom, cat. 1254). The 624824-186-R-J2-PDC line was cultured in 6C/Colon 1B media, which includes all 6A media components plus 50 ng/mL human EGF recombinant protein (Thermo Fisher Scientific, cat. PHG0311). […]
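Also: spheroids exposed to agents for 7 days before read-out.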
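For viability, T/C in this document: luminescence used as surrogate of cell viability.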

CCN1CCN(Cc2ccc(Nc3ncc(F)c(-c4cc(F)c5nc(C)n(C(C)C)c5c4)n3)nc2)CC1
viability, T/C (compound 0.00316 µM): 110% [middle of 4 runs] | viability, T/C (compound 0.01 µM): 93.5% [middle of 4 runs] | viability, T/C (compound 0.0316 µM): 94.2% [middle of 4 runs] | viability, T/C (compound 0.1 µM): 82% [middle of 4 runs] | viability, T/C (compound 0.316 µM): 87% [middle of 4 runs] | viability, T/C (compound 1 µM): 74% [middle of 4 runs] | IC50 (curve of compound): > 1000 nM

CC(C)n1nc(-c2ccc3oc(N)nc3c2)c2c(N)ncnc21
viability, T/C (compound 0.000316 µM): 103% [middle of 4 runs] | viability, T/C (compound 0.00316 µM): 101% [middle of 4 runs] | viability, T/C (compound 0.0316 µM): 80.7% [middle of 4 runs] | viability, T/C (compound 0.1 µM): 59.2% [middle of 4 runs] | IC50 (curve of compound): > 100 nM and 96.7 nM

Cn1nccc1Nc1nccc(-c2ccn(C(CO)c3ccc(Cl)c(F)c3)c(=O)c2)n1 (centres undefined) + COc1c(OCCCN2CCOCC2)ccc2c3n(c(=NC(=O)c4cnc(N)nc4)nc12)CCN3
IC50 (curve of first compound, second compound 0.00316 µM): > 10000 nM | IC50 (curve of first compound, second compound 0.01 µM): > 10000 nM | IC50 (curve of first compound, second compound 0.0316 µM): > 10000 nM | IC50 (curve of first compound, second compound 0.1 µM): > 10000 nM | IC50 (curve of first compound, second compound 0.316 µM): 65.1 nM | IC50 (curve of first compound, second compound 1 µM): < 31.6 nM | viability, T/C (second compound 0.00316 µM, first compound 0.0316 µM): 117% | viability, T/C (second compound 0.00316 µM, first compound 0.1 µM): 117% | viability, T/C (second compound 0.00316 µM, first compound 0.316 µM): 86.2% | viability, T/C (second compound 0.00316 µM, first compound 1 µM): 86.9% | viability, T/C (second compound 0.00316 µM, first compound 3.16 µM): 137% | viability, T/C (second compound 0.00316 µM, first compound 10 µM): 74.5% | viability, T/C (second compound 0.01 µM, first compound 0.0316 µM): 96.2% | viability, T/C (second compound 0.01 µM, first compound 0.1 µM): 87.6% | viability, T/C (second compound 0.01 µM, first compound 0.316 µM): 96.4% | viability, T/C (second compound 0.01 µM, first compound 1 µM): 100% | viability, T/C (second compound 0.01 µM, first compound 3.16 µM): 97.5% | viability, T/C (second compound 0.01 µM, first compound 10 µM): 97.8% | viability, T/C (second compound 0.0316 µM, first compound 0.0316 µM): 73.5% | viability, T/C (second compound 0.0316 µM, first compound 0.1 µM): 96.8% | viability, T/C (second compound 0.0316 µM, first compound 0.316 µM): 72.9% | viability, T/C (second compound 0.0316 µM, first compound 1 µM): 79.2% | viability, T/C (second compound 0.0316 µM, first compound 3.16 µM): 83.1% | viability, T/C (second compound 0.0316 µM, first compound 10 µM): 84.8% | viability, T/C (second compound 0.1 µM, first compound 0.0316 µM): 61.1% | viability, T/C (second compound 0.1 µM, first compound 0.1 µM): 67% | viability, T/C (second compound 0.1 µM, first compound 0.316 µM): 55.6% | viability, T/C (second compound 0.1 µM, first compound 1 µM): 86.7% | viability, T/C (second compound 0.1 µM, first compound 3.16 µM): 58.9% | viability, T/C (second compound 0.1 µM, first compound 10 µM): 43.6% | viability, T/C (second compound 0.316 µM, first compound 0.0316 µM): 58.5% | viability, T/C (second compound 0.316 µM, first compound 0.1 µM): 43% | viability, T/C (second compound 0.316 µM, first compound 0.316 µM): 34.8% | viability, T/C (second compound 0.316 µM, first compound 1 µM): 49.5% | viability, T/C (second compound 0.316 µM, first compound 3.16 µM): 57.5% | viability, T/C (second compound 0.316 µM, first compound 10 µM): 29.3% | viability, T/C (second compound 1 µM, first compound 0.0316 µM): 44.4% | viability, T/C (second compound 1 µM, first compound 0.1 µM): 31% | viability, T/C (second compound 1 µM, first compound 0.316 µM): 40.7% | viability, T/C (second compound 1 µM, first compound 1 µM): 49.4% | viability, T/C (second compound 1 µM, first compound 3.16 µM): 42.9% | viability, T/C (second compound 1 µM, first compound 10 µM): 27.6%
